Test results taken from patent EP1097139B1, “QUINOLINE DERIVATIVES” (Active Biotech AB, priority 1998, dated 2000).

How the values were obtained:
[1] = tested on: female rats during pregnancy; test: Teratogenic effects in the rat; type: in vivo; settings: dose of 6 mg/kg/day, subcutaneously, day 8 to 14 of pregnancy
Description: Teratogenic effects in the rat.
The compounds were administrated subcutaneously to female rats during pregnancy, i.e., day 8 to 14 of pregnancy. The rats were caesarean sectioned and necropsied on day 20 after fertilisation. The foetuses were examined for external and internal abnormalities.

[2] = tested on: female rats during pregnancy; settings: no dose given, background statement; cited from earlier work
[3] = tested on: acute experimental autoimmune encephalomyelitis (aEAE); test: Acute experimental autoimmune encephalomyelitis (aEAE) inhibition; type: in vivo; settings: at ≥5 mg/kg, mice, treatment control
beagle dogs = test: Beagle Pain Syndrome (BPS); type: in vivo; settings: different breeds of beagle dogs
Experimental: The disease is reflected by clinical and laboratory manifestations justifying BPS as a model for the flu-like syndrome induced by roquinimex in man.
Beagle Pain Syndrome (BPS).
The compounds were administrated intravenously to beagle dogs. The dosage was given for five consecutive days. The dogs were evaluated for clinical and laboratory signs of the pain syndrome, e.g., fever, increased erythrocyte sedimentation rate (ESR), alkaline phosphate (AP), induction of acute phase proteins and vasculitis

man = settings: e.g. a flu-like syndrome; cited from earlier work

| SMILES | Teratogenic effects in the rat [1] | teratogenic in the rat [2] | inhibition of acute experimental autoimmune encephalomyelitis (aEAE) [3] | induction of the Beagle Pain Syndrome (BPS) (beagle dogs) | side effects in man (man) |
| --- | --- | --- | --- | --- | --- |
| CCN(C(=O)c1c(O)c2c(SC)cccc2n(C)c1=O)c1ccccc1 [Compound A, N-ethyl-N-phenyl-1,2-dihydro-4-hydroxy-5-methylthio-1-methyl-2-oxo-quinoline-3-carboxamide] | non-teratogenic |  |  |  |  |
| CSc1cccc2c1c(O)c(C(=O)N(C)c1ccc(F)cc1F)c(=O)n2C [Compound B, N-methyl-N-(2,4-difluoro-phenyl)-1,2-dihydro-4-hydroxy-5-methylthio-1-methyl-2-oxo-quinoline-3-carboxamide] | non-teratogenic |  |  |  |  |
| CSc1cccc2c1c(O)c(C(=O)N(C)c1ccccc1)c(=O)n2C [N-methyl-N-phenyl-1,2-dihydro-4-hydroxy-5-methylthio-1-methyl-2-oxo-quinoline-3-carboxamide] | teratogenic |  |  |  |  |
| CN(C(=O)c1c(O)c2ccccc2n(C)c1=O)c1ccccc1 [Roquinimex, roquinimex] |  | teratogenic | more than 50% | induce the Beagle Pain Syndrome (BPS) | induces dose-limiting side effects |
